# Source: publication PMC10415461 (Molecular Diversity, 2022)
# Where two headings read alike, the source gives them in different places.
# Legend:
# S. aureus (ATCC 6538) = experiment: Antibacterial MIC, standard agar cup diffusion method; format: cell-based, Staphylococcus aureus; conditions: Staphylococcus aureus, ATCC6538, 37 °C, 24 h, read-out: MIC S. aureus (Gram-positive)
# Experimental: (§1) The antibacterial and antifungal activities of compounds, ketone 1, 2a-j, and 5a-i were evaluated in vitro against S. aureus (ATCC 6538), P. aeruginosa (ATCC 10,145), E. coli (ATCC 8739), and C. albicans (ATCC 10,231). […] Standard strains of Staphylococcus aureus (ATCC 6538), Pseudomonas aeruginosa (ATCC 10,145), and Escherichia coli (ATCC 8739) were obtained from microbiological resource center, Faculty of Agriculture, Ain Shams University, Cairo, Egypt. All isolates were maintained at -70 °C in Trypticase Soya Broth (TSB, Becton, and Dickinson) with 10% glycerol. Prior to inoculation, all isolates were subcultured at 37 °C for 24 h on Trypticase Soya Agar (TSA, Becton, and Dickinson) and TSB, respectively.
# (§2) The plates were rotated slowly to ensure uniform distribution of the microorganisms and then allowed to solidify on a flat surface. After solidification, four equidistant and circular wells of 10 mm diameter were carefully punched using a sterile cork bore. Twofold serial dilutions of the tested compounds using DMSO were performed. An equal volume of 100µL of each dilution was applied separately to each well in three replicates using a micropipette. All plates were incubated at 37 °C for 24 h. The inhibition zones were measured, and their average was calculated.
# [1] = Solubility determination in phosphate buffer; format: physicochemical; conditions: aqueous buffer, thermodynamic from solid
# Experimental: A sample of drug was accurately weighed and dissolved in 100 ml of distilled water to prepare 100 mcg/ml stock solutions. Appropriate dilution of the stock solution with phosphate buffer pH 6.8 and 7.8 was then made to prepare a working solution of 40mcg/ml.
# After determination of λ max of drug, a calibration curve was constructed by preparing solutions containing different concentrations of (1–5 mcg/ml) from stock solution after appropriate dilution with phosphate buffer pH 6.8. The UV absorbance of the prepared sample solutions were measured at the predetermined λ max using phosphate buffer pH 6.8 as a blank.
# Aqueous solubility of the complexes was measured as a function of pH. An excess of each derivative was placed into suitable stoppered containers. […] The samples were immersed in a water bath thermostatized at 37 ± 1^◦C and 100 rpm and periodically shaken for 48 h. Once the equilibrium was reached, the pH of the supernatant was regarded.
# [2] = tested on: C. albicans (ATCC 10,231); experiment: Antifungal MIC, agar cup diffusion method; format: cell-based, Candida albicans; conditions: Sabouraud agar, 37 °C; for MIC: Candida albicans, ATCC 10,231, 24 h, read-out: MIC C. albicans (Fungi); for MIC C. albicans (Fungi): 24 h
# Experimental: The antibacterial and antifungal activities of compounds, ketone 1, 2a-j, and 5a-i were evaluated in vitro against S. aureus (ATCC 6538), P. aeruginosa (ATCC 10,145), E. coli (ATCC 8739), and C. albicans (ATCC 10,231). […] The antifungal activity of compounds 1, 2a-j, and 5a-i and ketoconazole were determined according to the agar cup diffusion method at Deraya University, Faculty of Pharmacy, Department of Microbiology.
# Fungal strains and culture conditions. […] Standard strain of Candida albicans (ATCC 10,231) was obtained from microbiological resource center, Faculty of Agriculture, Ain Shams University, Cairo, Egypt. The isolate was maintained at -70 °C in Trypticase Soya Broth (TSB, Becton, and Dickinson) with 10% glycerol. Prior to inoculation, the isolate was subcultured at 37 °C for 24 h on Trypticase Soya Agar (TSA, Becton, and Dickinson) and TSB, respectively.
# as §2
# physchem = conditions: pH 7.8
# Experimental: The n-octanol/water apparent partition coefficient at the isoelectric point (or distribution constant) was measured by using the traditional shake-flask technique. The pH of the aqueous buffer was first adjusted to isoelectric point of the compound. The n-octanol and aqueous phases were then mutually saturated before the measurement. […] The samples were agitated for 5h at water bath shaker thermostatized at 25 ± 1^◦C and 100 rpm. The concentration of the solute was determined in the aqueous and organic phases at the isoelectric point by UV spectroscopy the log p value was calculated as follows: […].
# S. aureus DNA gyrase = S. aureus DNA gyrase (Staphylococcus aureus, UniProt P0A0K8+P20831); experiment: Staphylococcus aureus DNA gyrase supercoiling assay; format: biochemical; conditions: supercoiling of relaxed pBR322, 37 °C, 30 min; read-out: S. aureus DNA gyrase IC50 ± SD
# Sequence of S. aureus DNA gyrase (P20831 whole entry): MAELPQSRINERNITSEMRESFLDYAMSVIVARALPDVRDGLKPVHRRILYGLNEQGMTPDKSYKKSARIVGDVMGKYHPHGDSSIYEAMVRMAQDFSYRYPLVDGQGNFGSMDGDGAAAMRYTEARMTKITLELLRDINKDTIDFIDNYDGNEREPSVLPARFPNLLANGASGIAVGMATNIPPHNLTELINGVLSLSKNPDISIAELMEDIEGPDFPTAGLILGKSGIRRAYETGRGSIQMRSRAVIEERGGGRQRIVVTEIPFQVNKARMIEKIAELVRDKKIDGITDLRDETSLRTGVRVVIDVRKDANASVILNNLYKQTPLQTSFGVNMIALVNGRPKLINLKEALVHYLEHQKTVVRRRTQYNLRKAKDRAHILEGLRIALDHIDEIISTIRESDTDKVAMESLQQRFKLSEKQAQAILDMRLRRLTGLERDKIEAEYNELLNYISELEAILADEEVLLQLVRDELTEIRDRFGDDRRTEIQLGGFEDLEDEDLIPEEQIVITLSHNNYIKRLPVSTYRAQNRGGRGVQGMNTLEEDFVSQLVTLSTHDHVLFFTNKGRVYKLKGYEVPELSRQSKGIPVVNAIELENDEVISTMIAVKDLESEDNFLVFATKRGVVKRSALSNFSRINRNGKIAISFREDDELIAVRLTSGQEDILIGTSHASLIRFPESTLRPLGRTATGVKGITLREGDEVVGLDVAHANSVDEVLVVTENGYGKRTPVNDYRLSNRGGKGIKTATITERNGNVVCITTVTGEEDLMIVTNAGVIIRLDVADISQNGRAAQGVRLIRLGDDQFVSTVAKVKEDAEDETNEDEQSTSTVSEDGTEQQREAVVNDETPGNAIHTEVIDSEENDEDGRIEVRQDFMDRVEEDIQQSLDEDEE
# Sequence of S. aureus DNA gyrase (P0A0K8 whole entry): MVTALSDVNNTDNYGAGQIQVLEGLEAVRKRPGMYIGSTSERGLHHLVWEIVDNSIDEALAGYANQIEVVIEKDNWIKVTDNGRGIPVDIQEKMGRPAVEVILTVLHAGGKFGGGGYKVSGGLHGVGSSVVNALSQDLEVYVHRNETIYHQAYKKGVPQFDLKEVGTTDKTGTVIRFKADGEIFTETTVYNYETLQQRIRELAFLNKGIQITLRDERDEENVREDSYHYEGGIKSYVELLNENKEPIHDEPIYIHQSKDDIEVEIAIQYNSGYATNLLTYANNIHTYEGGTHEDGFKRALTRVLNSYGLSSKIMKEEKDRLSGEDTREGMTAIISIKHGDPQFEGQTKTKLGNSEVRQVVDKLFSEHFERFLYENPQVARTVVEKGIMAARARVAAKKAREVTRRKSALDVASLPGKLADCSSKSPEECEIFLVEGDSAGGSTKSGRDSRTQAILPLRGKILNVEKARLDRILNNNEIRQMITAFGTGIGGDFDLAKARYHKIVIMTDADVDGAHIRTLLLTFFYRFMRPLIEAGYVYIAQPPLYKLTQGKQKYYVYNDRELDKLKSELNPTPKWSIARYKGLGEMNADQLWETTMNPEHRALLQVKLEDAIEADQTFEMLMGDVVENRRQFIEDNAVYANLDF
# Experimental: As antibacterial agents, fluoroquinolones act by targeting and inhibiting DNA gyrase (topo II) which is an essential enzyme involved in the DNA replication process.
# Staphylococcus aureus DNA gyrase was incubated at 37 °C for 30 min in a total reaction volume of 30 μl containing 40 mM HEPES. KOH (pH 7.6), 10 mM magnesium acetate, 10 mM DTT, 2 mM ATP, 500 mM potassium glutamate, 0.05 mg/ml albumin and Relaxed pBR322. DNA gyrase supercoiling reactions catalyzed by S. aureus gyrase, Stop reaction by adding 30 μL of STEB and 30 μL of chloroform/isoamyl alcohol (v:v, 24:1),and then Vortex briefly ~ 5 secs and centrifuge for 1 min. after which 20 µL of this was loaded on a 1% agarose gel that was then run at ~ 75 V for approximately 2 h. The gel was stained by (0.5 mg/L) ethidium bromide in water. Fluorescent images were taken at a wavelength of 300 nm on a UV transilluminator imaging system. The fluorescence intensity of the supercoiled plasmid reaction product was quantitated using ImagQuant software (Molecular Dynamics).
# [3] = tested on: P. aeruginosa (ATCC 10,145); experiment: Antibacterial MIC, standard agar cup diffusion method; format: cell-based; conditions: Pseudomonas aeruginosa, ATCC 10145, 37 °C, 24 h, read-out: MIC P. aeruginosa (Gram-negative)
# Experimental: as §1, §2
# E. coli (ATCC 8739) = experiment: as above; format: cell-based; conditions: Escherichia coli, ATCC8739, 37 °C, 24 h, read-out: MIC E. coli (Gram-negative)
# Experimental: as §1, §2
# [4] = phosphate buffer pH 6.8, 37 °C, read-out: Solubility pH 6.8
# [5] = phosphate buffer pH 7.8, 37 °C, read-out: Solubility pH 7.8
SMILES,MIC (S. aureus (ATCC 6538)) [µg/mL],"solubility at 48 h [1, 4] [µg/mL]","solubility at 48 h [1, 5] [µg/mL]",MIC [2] [µg/mL],MIC C. albicans (Fungi) [2] [µg/mL],logD (physchem),IC50 (S. aureus DNA gyrase) [nM],MIC [3] [µg/mL],MIC (E. coli (ATCC 8739)) [µg/mL],melting point [°C],Lipophilicity (log p) (physchem)
O=C(/C=C/c1ccc(F)cc1)c1ccc(NC(=O)N2CCN(c3cc4c(cc3F)c(=O)c(C(=O)O)cn4C3CC3)CC2)cc1 [Compound 2e],0.89,160,180,2.03 to 3.89,2.03,0.07,3810 ± 200,0.96,0.53,,
"N#Cc1c(-c2ccc(Cl)cc2)nc(SCC(=O)N2CCN(c3cc4c(cc3F)c(=O)c(C(=O)O)cn4C3CC3)CC2)[nH]c1=O [Compound 5c, 7-(4-(2-((4-(4-Chlorophenyl)-5-cyano-6-oxo-1,6-dihydropyrimidin-2-yl)thio)acetyl)piperazin-1-yl)-1-cyclopropyl-6-fluoro-4-oxo-1,4-dihydroquinoline-3-carboxylic acid]",0.58,,,2.03 to 3.89,2.87,,1570 ± 80,2.04,1.03,253 to 256,
O=C(/C=C/c1ccccc1)c1ccc(NC(=O)N2CCN(c3cc4c(cc3F)c(=O)c(C(=O)O)cn4C3CC3)CC2)cc1 [Compound 2a],0.74,210,150,> 100,,0.24,3470 ± 180,1.12,0.64,,
COc1ccc(/C=C/C(=O)c2ccc(NC(=O)N3CCN(c4cc5c(cc4F)c(=O)c(C(=O)O)cn5C4CC4)CC3)cc2)cc1OC [Compound 2i],6.3,150,190,> 100,,,,17,4.13,,− 0.06
Cc1ccc(/C=C/C(=O)c2ccc(NC(=O)N3CCN(c4cc5c(cc4F)c(=O)c(C(=O)O)cn5C4CC4)CC3)cc2)cc1 [Compound 2f],0.94,160,170,> 100,,0.4,1770 ± 90,3.7,9.33,,
"N#Cc1c(-c2ccc(F)cc2)nc(SCC(=O)N2CCN(c3cc4c(cc3F)c(=O)c(C(=O)O)cn4C3CC3)CC2)[nH]c1=O [Compound 5e, 7-(4-(2-((4-(4-Fluorophenyl)-5-cyano-6-oxo-1,6-dihydropyrimidin-2-yl)thio)acetyl)piperazin-1-yl)-1-cyclopropyl-6-fluoro-4-oxo-1,4-dihydroquinoline-3-carboxylic acid]",0.78,,,2.03 to 3.89,2.51,,1010 ± 50,3.25,0.52,242 to 245,
COc1ccc(/C=C/C(=O)c2ccc(NC(=O)N3CCN(c4cc5c(cc4F)c(=O)c(C(=O)O)cn5C4CC4)CC3)cc2)cc1 [Compound 2g],8,,,> 100,,,,6.25,17,,
